One block for each molecule: values may come before it.
Test system: 186277-243-T-J2-PDC complex spheroid growth
Test: Anticancer human tumor 186277-243-T-J2-PDC patient-derived colon adenocarcinoma cell line growth inhibition [AhR]
Conditions: for IC50: curve of first compound; for viability, T/C: stronger effect = lower value
Method in brief: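 Complex tumor spheroids co-cultured with HUVEC and human MSC stroma; AhR antagonists tested in combination with standard-of-care and investigational agents. Top concentration at or near clinical Cmax (else 10 microM), half-log dilutions; growth expressed as percent test/control.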

[1] = second compound 0.1 µM, first compound 0.0316 µM
[2] = second compound 0.1 µM, first compound 0.1 µM
[3] = second compound 0.1 µM, first compound 0.316 µM
[4] = second compound 0.1 µM, first compound 1 µM
[5] = second compound 0.1 µM, first compound 3.16 µM
[6] = second compound 0.1 µM, first compound 10 µM
[7] = second compound 0.316 µM, first compound 0.0316 µM
[8] = second compound 0.316 µM, first compound 0.1 µM
[9] = second compound 0.316 µM, first compound 0.316 µM
[10] = second compound 0.316 µM, first compound 1 µM
[11] = second compound 0.316 µM, first compound 3.16 µM
[12] = second compound 0.316 µM, first compound 10 µM
[13] = second compound 1 µM, first compound 0.0316 µM
[14] = second compound 1 µM, first compound 0.1 µM
[15] = second compound 1 µM, first compound 0.316 µM
[16] = second compound 1 µM, first compound 1 µM
[17] = second compound 1 µM, first compound 3.16 µM
[18] = second compound 1 µM, first compound 10 µM
[19] = second compound 3.16 µM, first compound 0.0316 µM
[20] = second compound 3.16 µM, first compound 0.1 µM
[21] = second compound 3.16 µM, first compound 0.316 µM
[22] = second compound 3.16 µM, first compound 1 µM
[23] = second compound 3.16 µM, first compound 3.16 µM
[24] = second compound 3.16 µM, first compound 10 µM
[25] = second compound 10 µM, first compound 0.0316 µM
[26] = second compound 10 µM, first compound 0.1 µM
[27] = second compound 10 µM, first compound 0.316 µM
[28] = second compound 10 µM, first compound 1 µM
[29] = second compound 10 µM, first compound 3.16 µM
[30] = second compound 10 µM, first compound 10 µM
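Note: spheroids exposed to compounds for seven days before the viability read.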
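Throughout, for viability, T/C: luminescent signal used as a stand-in for viable cell amount; 100% = DMSO vehicle control wells.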

IC50 (second compound 0.1 µM): > 10000 nM
IC50 (second compound 0.316 µM): > 10000 nM
IC50 (second compound 1 µM): > 10000 nM
IC50 (second compound 3.16 µM): > 10000 nM
IC50 (second compound 10 µM): < 31.6 nM
Structure (SMILES): COc1cc(Nc2ncc3c(n2)-c2ccc(Cl)cc2C(c2c(F)cccc2OC)=NC3)ccc1C(=O)O + Cc1cncc(-c2nc(NCCc3c[nH]c4ccccc34)c3ncn(C(C)C)c3n2)c1
viability, T/C [1]: 90.2%
viability, T/C [2]: 77.9%
viability, T/C [3]: 70.2%
viability, T/C [4]: 61.6%
viability, T/C [5]: 70.5%
viability, T/C [6]: 74.5%
viability, T/C [7]: 91.9%
viability, T/C [8]: 78.6%
viability, T/C [9]: 72.3%
viability, T/C [10]: 61.8%
viability, T/C [11]: 67.1%
viability, T/C [12]: 72.2%
viability, T/C [13]: 96.9%
viability, T/C [14]: 75.4%
viability, T/C [15]: 74.4%
viability, T/C [16]: 67.1%
viability, T/C [17]: 64.3%
viability, T/C [18]: 70.6%
viability, T/C [19]: 93.2%
viability, T/C [20]: 71.4%
viability, T/C [21]: 71.9%
viability, T/C [22]: 59.4%
viability, T/C [23]: 63%
viability, T/C [24]: 71.5%
viability, T/C [25]: 37.9%
viability, T/C [26]: 27.4%
viability, T/C [27]: 23.2%
viability, T/C [28]: 24.6%
viability, T/C [29]: 23.8%
viability, T/C [30]: 31.6%

IC50 (second compound 0.1 µM): 693 nM
IC50 (second compound 0.316 µM): 563 nM
IC50 (second compound 1 µM): 492 nM
IC50 (second compound 3.16 µM): 365 nM
IC50 (second compound 10 µM): 41 nM
Structure (SMILES): NS(=O)(=O)OCC1CC(n2ccc3c(NC4CCc5ccccc54)ncnc32)CC1O (stereo not given) + Cc1cncc(-c2nc(NCCc3c[nH]c4ccccc34)c3ncn(C(C)C)c3n2)c1
viability, T/C [1]: 114%
viability, T/C [2]: 93.1%
viability, T/C [3]: 80.4%
viability, T/C [4]: 35.6%
viability, T/C [5]: 13.2%
viability, T/C [6]: 3.87%
viability, T/C [7]: 104%
viability, T/C [8]: 96.2%
viability, T/C [9]: 71.4%
viability, T/C [10]: 28.6%
viability, T/C [11]: 9.15%
viability, T/C [12]: 3.24%
viability, T/C [13]: 96%
viability, T/C [14]: 89.8%
viability, T/C [15]: 67.6%
viability, T/C [16]: 22.2%
viability, T/C [17]: 5.08%
viability, T/C [18]: 2.62%
viability, T/C [19]: 91.8%
viability, T/C [20]: 86.8%
viability, T/C [21]: 52.2%
viability, T/C [22]: 21.3%
viability, T/C [23]: 5%
viability, T/C [24]: 2.12%
viability, T/C [25]: 57.8%
viability, T/C [26]: 24.4%
viability, T/C [27]: 9.9%
viability, T/C [28]: 7.65%
viability, T/C [29]: 2.02%
viability, T/C [30]: 1.58%
